Starred links: 1 amine or outer side, 2 acyl side, 3 side chain; linkers in the order of their positions; H or OH if unused. Positions of bridges follow the written chain, without caps; N, C: chain ends. Non-standard residues stand in square brackets, D forms with d. Residues, ends and D or L forms follow the SMILES beside them. *: point of attachment. hPhe(3-Cl-4-CF3) = N[C@@H](CCc1ccc(C(F)(F)F)c(Cl)c1)C(=O)O; hPhe(3-F,4-CF3) = N[C@@H](CCc1ccc(C(F)(F)F)c(F)c1)C(=O)O; hPhe(4-CF3) = N[C@@H](CCc1ccc(C(F)(F)F)cc1)C(=O)O; NEtPhe(4-Me) = CCN[C@@H](Cc1ccc(C)cc1)C(=O)O; NMePhe(4-Cl) = CN[C@@H](Cc1ccc(Cl)cc1)C(=O)O; NMedβ3hAla = C[C@H](CC(=O)[*:2])N(C)[*:1]; Oic = O=C(O)[C@@H]1C[C@@H]2CCCC[C@@H]2N1; X22 = O=C([C@@H]1Cc2ccccc2N1[*:1])[*:2]; NMeGly(cPent) = CN[C@H](C(=O)O)C1CCCC1; NMeCha = CN[C@@H](CC1CCCCC1)C(=O)O; Hyp = O=C(O)[C@@H]1C[C@@H](O)CN1; NMeChg = CN[C@H](C(=O)O)C1CCCCC1; NMeF = CN[C@@H](Cc1ccccc1)C(=O)O; NMeD = CN[C@@H](CC(=O)O)C(=O)O; NMeL = CN[C@@H](CC(C)C)C(=O)O; NMeV = CN[C@H](C(=O)O)C(C)C; d(β3hA) = C[C@@H](N)CC(=O)O; Azetidin(1-yl) = C1CN(*)C1; NMeS = CN[C@@H](CO)C(=O)O; NMeA = CN[C@@H](C)C(=O)O; Piperidide = C1CCN(*)CC1; Pyrrolidide = C1CCN(*)C1; dNMeA = CN[C@H](C)C(=O)O; Ac5c = NC1(C(=O)O)CCCC1; Aze = O=C(O)[C@@H]1CCN1; Aib = CC(C)(N)C(=O)O; X47 = Fc1cncc(C*)c1; Sar = CNCC(=O)O
Molecular target: T1, Kras and SOS1 (biotin-tagged human Kras loaded with GDP, His-tagged human SOS1) (Homo sapiens, UniProt P01116, G12D)
T1 construct: made in house; host or cells: E. coli (stated for Kras only)
Test: Protein-protein interaction inhibition between Kras and SOS1 (KrasGl2D-SOS PPI) using AlphaScreen
Type: binding
Conditions: AlphaScreen; biotin-tagged human Kras loaded with GDP, His-tagged human SOS1; read-out: KRAS G12D-SOS PPI IC50
Summary of the method: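 Binding between SOS1 and Kras is detected as bead-proximity luminescence: illuminate Ni-conjugated donors (680 nm), collect 520-620 nm emission from streptavidin-conjugated acceptors; Kras carries biotin and GDP loaded after purification, SOS1 carries a His tag.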

T1 sequence (P01116 1-188 isoform P01116-2 G12D): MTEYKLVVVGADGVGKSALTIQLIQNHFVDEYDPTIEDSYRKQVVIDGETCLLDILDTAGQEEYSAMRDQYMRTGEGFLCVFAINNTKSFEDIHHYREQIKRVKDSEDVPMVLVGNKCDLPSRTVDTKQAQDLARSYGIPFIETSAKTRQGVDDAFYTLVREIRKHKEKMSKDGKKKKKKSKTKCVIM

| SMILES | IC50 [nM] |
| --- | --- |
| CC[C@H](C)[C@@H]1NC(=O)[C@H](CC(C)C)N(C)C(=O)C[C@@H](C(=O)N2CCCC2)NC(=O)[C@H](C(C)C)N(C)C(=O)C2(CCCC2)NC(=O)[C@@H]2CCCN2C(=O)[C@H](CCc2ccc(C(F)(F)F)c(Cl)c2)NC(=O)CN(C)C(=O)[C@H](CC2CCCCC2)N(C)C(=O)CN(C)C(=O)CN(C)C1=O [Compound 508] ([NMeL]I[Sar][Sar][NMeCha][Sar][hPhe(3-Cl-4-CF3)]P[Ac5c][NMeV]D-Pyrrolidide; lactam N-11) | 12 |
| CC[C@H](C)[C@@H]1NC(=O)[C@H](C)N(C)C(=O)C[C@@H](C(=O)N2CCCC2)NC(=O)[C@H](CC(C)C)N(C)C(=O)[C@H](Cc2ccccc2)N(C)C(=O)[C@H](COCc2cncc(F)c2)NC(=O)[C@H](CCc2ccc(C(F)(F)F)cc2)NC(=O)CN(C)C(=O)[C@H](Cc2ccc(Cl)cc2)N(C)C(=O)CN(C)C(=O)CN(C)C1=O [Compound 513] ([NMeA]I[Sar][Sar][NMePhe(4-Cl)][Sar][hPhe(4-CF3)]S(X47)[NMeF][NMeL]D-Pyrrolidide; lactam N-11) | 46 |
| CC[C@H](C)[C@@H]1NC(=O)[C@H](CC(C)C)N(C)C(=O)C[C@@H](C(=O)N2CCCCC2)N(C)C(=O)[C@H](C2CCCCC2)N(C)C(=O)C2(CCCC2)NC(=O)[C@@H]2Cc3ccccc3N2C(=O)[C@H](CCc2ccc(C(F)(F)F)c(Cl)c2)NC(=O)CN(C)C(=O)[C@H](CC2CCCCC2)N(C)C(=O)CN(C)C(=O)CN(C)C1=O [Compound 514] ([NMeL]I[Sar][Sar][NMeCha][Sar][hPhe(3-Cl-4-CF3)][X22][Ac5c][NMeChg][NMeD]-Piperidide; lactam N-11) | 14 |
| CC[C@H](C)[C@@H]1NC(=O)[C@H](CC(C)C)N(C)C(=O)C[C@@H](C(=O)N2CCC2)N(C)C(=O)[C@H](C2CCCC2)N(C)C(=O)C2(CCCC2)NC(=O)[C@@H]2CCCN2C(=O)[C@H](CCc2ccc(C(F)(F)F)c(Cl)c2)NC(=O)CN(C)C(=O)[C@H](CC2CCCCC2)N(C)C(=O)[C@@H]2CCN2C(=O)[C@H](C)N(C)C1=O [Compound 515] ([NMeL]I[NMeA][Aze][NMeCha][Sar][hPhe(3-Cl-4-CF3)]P[Ac5c][NMeGly(cPent)][NMeD]-{Azetidin(1-yl)}; lactam N-11) | 0.55 |
| CC[C@H](C)[C@@H]1NC(=O)[C@H](C)N(C)C(=O)C[C@@H](C)NC(=O)[C@H](C(C)C)N(C)C(=O)C2(CCCC2)NC(=O)[C@@H]2CCCN2C(=O)[C@H](CCc2ccc(C(F)(F)F)c(Cl)c2)NC(=O)[C@@H](C)N(C)C(=O)[C@H](CC2CCCCC2)N(C)C(=O)[C@@H]2CCCN2C(=O)CN(C)C1=O [Compound 516] (cyclo([Ac5c][NMeV][d(β3hA)][NMeA]I[Sar]P[NMeCha][dNMeA][hPhe(3-Cl-4-CF3)]P)) | 62 |
| CC[C@H](C)[C@@H]1NC(=O)[C@H](C)N(C)C(=O)C[C@@H](C(=O)N2CCCC2)NC(=O)[C@H](CC(C)C)N(C)C(=O)[C@H](COCc2cncc(F)c2)N(C)C(=O)[C@H](CC(C)C)NC(=O)[C@H](CCc2ccc(C(F)(F)F)cc2)NC(=O)CN(C)C(=O)[C@H](Cc2ccc(Cl)cc2)N(C)C(=O)CN(C)C(=O)CN(C)C1=O [Compound 517] ([NMeA]I[Sar][Sar][NMePhe(4-Cl)][Sar][hPhe(4-CF3)]L[NMeS](X47)[NMeL]D-Pyrrolidide; lactam N-11) | 28 |
| CC[C@H](C)[C@@H]1NC(=O)[C@H](C)N(C)C(=O)C[C@@H](C)NC(=O)[C@H](CC(C)C)N(C)C(=O)C(C)(C)NC(=O)[C@@H]2C[C@@H]3CCCC[C@@H]3N2C(=O)[C@H](CCc2ccc(C(F)(F)F)cc2)NC(=O)CN(C)C(=O)[C@H](Cc2ccc(Cl)cc2)N(C)C(=O)CN(C)C(=O)CN(C)C1=O [Compound 521] (cyclo([Aib][NMeL][d(β3hA)][NMeA]I[Sar][Sar][NMePhe(4-Cl)][Sar][hPhe(4-CF3)][Oic])) | 71 |
| CC[C@H](C)[C@@H]1NC(=O)[C@H](CC(C)C)N(C)C(=O)C[C@@H](C(=O)N2CCCCC2)N(C)C(=O)[C@H](C(C)C)N(C)C(=O)C(C)(C)NC(=O)[C@@H]2CCCN2C(=O)[C@H](CCc2ccc(C(F)(F)F)c(F)c2)NC(=O)CN(C)C(=O)[C@H](CC2CCCCC2)N(C)C(=O)CN(C)C(=O)CN(C)C1=O [Compound 522] ([NMeL]I[Sar][Sar][NMeCha][Sar][hPhe(3-F,4-CF3)]P[Aib][NMeV][NMeD]-Piperidide; lactam N-11) | 5.3 |
| CCO[C@@H]1C[C@H]2C(=O)NC3(CCCC3)C(=O)N(C)[C@@H](C3CCCC3)C(=O)N(C)[C@H](C)CC(=O)N(C)[C@@H](CC(C)C)C(=O)N[C@@H]([C@@H](C)CC)C(=O)N[C@@H](C)C(=O)N3CC[C@H]3C(=O)N(CC)[C@@H](Cc3ccc(C)cc3)C(=O)N(C)CC(=O)N[C@@H](CCc3ccc(C(F)(F)F)c(Cl)c3)C(=O)N2C1 [Compound 525] (cyclo(A[Aze][NEtPhe(4-Me)][Sar][hPhe(3-Cl-4-CF3)][Hyp](Et)[Ac5c][NMeGly(cPent)][NMedβ3hAla][NMeL]I)) | 2.3 |

From patent US12371454B2, “Cyclic peptide compound having Kras inhibitory action” (priority 2019, dated 2025)
